Measurements: PubChem BioAssay AID1259407 (Chemical Carcinogenesis Research Information System (CCRIS), 2018)
Calls of active or inactive are those of the source. How the calls were made is not given here.

Test system: CCRIS mutagenicity, Ames/micronucleus/aberration tests
Assay: CCRIS mutagenicity studies

In the case of CC(=O)N[C@@H](CC(=O)O)C(=O)O, the mutagenic call (End Point: In vivo micronucleus, Test System: Bone marrow erythrocytes, Species: Mouse, Strain/Sex: Crl:CD1 (ICR)/Male and female, Route: Oral) is reported as “inactive; negative”, the mutagenic call (Test System: Ames Salmonella typhimurium, Strain/Indicator: TA98, Metabolic Activation: None, Method: Standard plate) is reported as “inactive; negative” and the mutagenic call (Test System: Ames Salmonella typhimurium, Strain/Indicator: TA98, Metabolic Activation: Rat, Liver, S-9, Aroclor 1254 (10%), Method: Standard plate) is reported as “inactive; negative”. The mutagenic call (Test System: Ames Salmonella typhimurium, Strain/Indicator: TA100, Metabolic Activation: None, Method: Standard plate) was “inactive; negative”, the mutagenic call (Test System: Ames Salmonella typhimurium, Strain/Indicator: TA100, Metabolic Activation: Rat, Liver, S-9, Aroclor 1254 (10%), Method: Standard plate) was “inactive; negative” and the mutagenic call (Test System: Ames Salmonella typhimurium, Strain/Indicator: TA1535, Metabolic Activation: None, Method: Standard plate) was “inactive; negative”. The mutagenic call (Test System: Ames Salmonella typhimurium, Strain/Indicator: TA1535, Metabolic Activation: Rat, Liver, S-9, Aroclor 1254 (10%), Method: Standard plate) was “inactive; negative”, the mutagenic call (Test System: Ames Salmonella typhimurium, Strain/Indicator: TA1537, Metabolic Activation: None, Method: Standard plate) was “inactive; negative” and the mutagenic call (Test System: Ames Salmonella typhimurium, Strain/Indicator: TA1537, Metabolic Activation: Rat, Liver, S-9, Aroclor 1254 (10%), Method: Standard plate) was “inactive; negative”. For the same compound, the mutagenic call (Test System: E. coli, Strain/Indicator: WP2 uvrA, Metabolic Activation: None, Method: Standard plate) was “inactive; negative” and the mutagenic call (Test System: E. coli, Strain/Indicator: WP2 uvrA, Metabolic Activation: Rat, Liver, S-9, Aroclor 1254 (10%), Method: Standard plate) was “inactive; negative”.
In the case of CNC(=O)Oc1cccc2c1OC(C)(C)C2=O, the mutagenic call (End Point: IN VIVO MICRONUCLEUS, Test System: BONE MARROW POLYCHROMATIC ERYTHROCYTES, Species: MOUSE, Strain/Sex: KM/MALE, FEMALE, Route: IP INJECTION) is reported as “inactive; negative”.
CCc1ccccc1N was tested, and the mutagenic call (Test System: AMES SALMONELLA TYPHIMURIUM, Strain/Indicator: TA98, Metabolic Activation: NONE, Method: PREINCUBATION) was “inactive; negative”, the mutagenic call (Test System: AMES SALMONELLA TYPHIMURIUM, Strain/Indicator: TA98, Metabolic Activation: S-9, Method: PREINCUBATION) was “inactive; negative” and the mutagenic call (Test System: AMES SALMONELLA TYPHIMURIUM, Strain/Indicator: TA100, Metabolic Activation: NONE, Method: PREINCUBATION) was “inactive; negative”. For the same compound, the mutagenic call (Test System: AMES SALMONELLA TYPHIMURIUM, Strain/Indicator: TA100, Metabolic Activation: S-9, Method: PREINCUBATION) was “inactive; negative” and the mutagenic call (Test System: UDS RODENT HEPATOCYTES, Strain/Indicator: THY INCORP (NON-S-PHASE), Metabolic Activation: NONE, Method: AUTORADIOGRAPHY) was “inactive; negative”.
With Nc1ccc2c(N)c3ccccc3nc2c1 the mutagenic call (Test System: AMES SALMONELLA TYPHIMURIUM, Strain/Indicator: TA1535, Metabolic Activation: NONE, Method: PREINCUBATION) was “inactive; negative”, the mutagenic call (Test System: AMES SALMONELLA TYPHIMURIUM, Strain/Indicator: TA1535, Metabolic Activation: RAT, LIVER, S-9, TETRACHLOROBIPHENYL, Method: PREINCUBATION) was “inactive; negative” and the mutagenic call (Test System: AMES SALMONELLA TYPHIMURIUM, Strain/Indicator: TA1537, Metabolic Activation: NONE, Method: PREINCUBATION) was “active; positive”. The mutagenic call (Test System: AMES SALMONELLA TYPHIMURIUM, Strain/Indicator: TA1537, Metabolic Activation: RAT, LIVER, S-9, TETRACHLOROBIPHENYL, Method: PREINCUBATION) was “active; positive”, the mutagenic call (Test System: AMES SALMONELLA TYPHIMURIUM, Strain/Indicator: TA1538, Metabolic Activation: NONE, Method: PREINCUBATION) was “active; positive” and the mutagenic call (Test System: AMES SALMONELLA TYPHIMURIUM, Strain/Indicator: TA1538, Metabolic Activation: RAT, LIVER, S-9, TETRACHLOROBIPHENYL, Method: PREINCUBATION) was “active; positive”. The mutagenic call (Test System: AMES SALMONELLA TYPHIMURIUM, Strain/Indicator: TA1977, Metabolic Activation: NONE, Method: PREINCUBATION) was “active; positive”, the mutagenic call (Test System: AMES SALMONELLA TYPHIMURIUM, Strain/Indicator: TA1977, Metabolic Activation: RAT, LIVER, S-9, TETRACHLOROBIPHENYL, Method: PREINCUBATION) was “active; positive” and the mutagenic call (Test System: AMES SALMONELLA TYPHIMURIUM, Strain/Indicator: TA1978, Metabolic Activation: NONE, Method: PREINCUBATION) was “inactive; negative”. The mutagenic call (Test System: AMES SALMONELLA TYPHIMURIUM, Strain/Indicator: TA1978, Metabolic Activation: RAT, LIVER, S-9, TETRACHLOROBIPHENYL, Method: PREINCUBATION) was “inactive; negative”.
CC(Cc1ccc(O)c(O)c1)C(C)Cc1ccc(O)c(O)c1 (centres undefined) was tested, and the mutagenic call (Test System: AMES SALMONELLA TYPHIMURIUM, Strain/Indicator: TA98, Metabolic Activation: HAMSTER, LIVER, S-9, AROCLOR 1254, Method: STANDARD PLATE) was “inactive; negative”, the mutagenic call (Test System: AMES SALMONELLA TYPHIMURIUM, Strain/Indicator: TA98, Metabolic Activation: NONE, Method: STANDARD PLATE) was “inactive; negative” and the mutagenic call (Test System: AMES SALMONELLA TYPHIMURIUM, Strain/Indicator: TA98, Metabolic Activation: RAT, LIVER, S-9, AROCLOR 1254, Method: STANDARD PLATE) was “inactive; negative”. For the same compound, the mutagenic call (Test System: AMES SALMONELLA TYPHIMURIUM, Strain/Indicator: TA100, Metabolic Activation: HAMSTER, LIVER, S-9, AROCLOR 1254, Method: STANDARD PLATE) was “inactive; negative”, the mutagenic call (Test System: AMES SALMONELLA TYPHIMURIUM, Strain/Indicator: TA100, Metabolic Activation: NONE, Method: STANDARD PLATE) was “inactive; negative” and the mutagenic call (Test System: AMES SALMONELLA TYPHIMURIUM, Strain/Indicator: TA100, Metabolic Activation: RAT, LIVER, S-9, AROCLOR 1254, Method: STANDARD PLATE) was “inactive; negative”. For the same compound, the mutagenic call (Test System: AMES SALMONELLA TYPHIMURIUM, Strain/Indicator: TA1535, Metabolic Activation: HAMSTER, LIVER, S-9, AROCLOR 1254, Method: STANDARD PLATE) was “inactive; negative”, the mutagenic call (Test System: AMES SALMONELLA TYPHIMURIUM, Strain/Indicator: TA1535, Metabolic Activation: NONE, Method: STANDARD PLATE) was “inactive; negative” and the mutagenic call (Test System: AMES SALMONELLA TYPHIMURIUM, Strain/Indicator: TA1535, Metabolic Activation: RAT, LIVER, S-9, AROCLOR 1254, Method: STANDARD PLATE) was “inactive; negative”. The mutagenic call (Test System: AMES SALMONELLA TYPHIMURIUM, Strain/Indicator: TA1537, Metabolic Activation: HAMSTER, LIVER, S-9, AROCLOR 1254, Method: STANDARD PLATE) was “inactive; negative”, the mutagenic call (Test System: AMES SALMONELLA TYPHIMURIUM, Strain/Indicator: TA1537, Metabolic Activation: NONE, Method: STANDARD PLATE) was “inactive; negative” and the mutagenic call (Test System: AMES SALMONELLA TYPHIMURIUM, Strain/Indicator: TA1537, Metabolic Activation: RAT, LIVER, S-9, AROCLOR 1254, Method: STANDARD PLATE) was “inactive; negative”. The mutagenic call (Test System: AMES SALMONELLA TYPHIMURIUM, Strain/Indicator: TA1538, Metabolic Activation: HAMSTER, LIVER, S-9, AROCLOR 1254, Method: STANDARD PLATE) was “inactive; negative”, the mutagenic call (Test System: AMES SALMONELLA TYPHIMURIUM, Strain/Indicator: TA1538, Metabolic Activation: NONE, Method: STANDARD PLATE) was “inactive; negative” and the mutagenic call (Test System: AMES SALMONELLA TYPHIMURIUM, Strain/Indicator: TA1538, Metabolic Activation: RAT, LIVER, S-9, AROCLOR 1254, Method: STANDARD PLATE) was “inactive; negative”. The mutagenic call (Test System: MOUSE LYMPHOMA, Strain/Indicator: L5178Y (TK+/TK-), Metabolic Activation: NONE, Method: SUSPENSION/PLATE) was “active; positive. reevaluation of results: positive” and the mutagenic call (Test System: MOUSE LYMPHOMA, Strain/Indicator: L5178Y (TK+/TK-), Metabolic Activation: RAT, LIVER, S-9, AROCLOR 1254, Method: SUSPENSION/PLATE) was “inactive; negative. reevaluation of results: negative”.
